According to doi:10.1101/2020.01.14.906396v1 (biorxiv, 2020):

What follows are molecules tested against T1, K2P2.1 (TREK-1, KCNK2) (Homo sapiens, UniProt O95069) (assay: two-electrode voltage clamp, Xenopus oocytes).
T1 sequence (O95069 1-426): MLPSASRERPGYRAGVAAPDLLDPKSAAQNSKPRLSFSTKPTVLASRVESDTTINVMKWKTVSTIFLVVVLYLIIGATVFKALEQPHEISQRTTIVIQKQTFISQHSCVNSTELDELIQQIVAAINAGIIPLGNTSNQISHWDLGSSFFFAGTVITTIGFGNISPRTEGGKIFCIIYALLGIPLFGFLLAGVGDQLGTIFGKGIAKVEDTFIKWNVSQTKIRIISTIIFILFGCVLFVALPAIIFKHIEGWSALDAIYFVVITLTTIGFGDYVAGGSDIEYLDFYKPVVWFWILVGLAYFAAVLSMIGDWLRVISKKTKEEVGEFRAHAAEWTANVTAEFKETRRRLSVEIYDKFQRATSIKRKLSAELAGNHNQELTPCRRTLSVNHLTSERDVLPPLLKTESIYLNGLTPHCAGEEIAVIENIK
Format: cell-based

Row | EC50 [µM] | SMILES
1 | 3800 ± 1000 | CC(C)[C@@H]1CC[C@@H](C)C[C@H]1O [menthol]
2 | 430 ± 240 | Cc1ccc(C(C)C)c(O)c1 [thymol]
3 | 200 ± 60 | Cc1ccc(C(C)C)cc1O [carvacrol, 2-methyl-5-(propan-2-yl) phenol]
